# Earlier results, collected in patent US20100121052A1, “Novel compounds for treating proliferative diseases” (priority 2008, published 2010).
# Test system: prostate cancer cell lines
# Conditions: background statement
smiles,measurement,value
CC(=O)O[C@@H]1[C@@H](OC(C)=O)[C@@H](O)[C@H](Oc2c(-c3ccc(O)cc3)oc3cc(O)cc(O)c3c2=O)O[C@H]1C [SL0101],inhibition of proliferation of multiple prostate cancer cell lines,inhibit the proliferation
